From ChEMBL document CHEMBL1150064, “Scoparic acid A, a beta-glucuronidase inhibitor from Scoparia dulcis” (J Nat Prod, 1992)

T1: Beta-glucuronidase (Bos taurus, UniProt A3KMY8)
T1 sequence (A3KMY8 whole entry): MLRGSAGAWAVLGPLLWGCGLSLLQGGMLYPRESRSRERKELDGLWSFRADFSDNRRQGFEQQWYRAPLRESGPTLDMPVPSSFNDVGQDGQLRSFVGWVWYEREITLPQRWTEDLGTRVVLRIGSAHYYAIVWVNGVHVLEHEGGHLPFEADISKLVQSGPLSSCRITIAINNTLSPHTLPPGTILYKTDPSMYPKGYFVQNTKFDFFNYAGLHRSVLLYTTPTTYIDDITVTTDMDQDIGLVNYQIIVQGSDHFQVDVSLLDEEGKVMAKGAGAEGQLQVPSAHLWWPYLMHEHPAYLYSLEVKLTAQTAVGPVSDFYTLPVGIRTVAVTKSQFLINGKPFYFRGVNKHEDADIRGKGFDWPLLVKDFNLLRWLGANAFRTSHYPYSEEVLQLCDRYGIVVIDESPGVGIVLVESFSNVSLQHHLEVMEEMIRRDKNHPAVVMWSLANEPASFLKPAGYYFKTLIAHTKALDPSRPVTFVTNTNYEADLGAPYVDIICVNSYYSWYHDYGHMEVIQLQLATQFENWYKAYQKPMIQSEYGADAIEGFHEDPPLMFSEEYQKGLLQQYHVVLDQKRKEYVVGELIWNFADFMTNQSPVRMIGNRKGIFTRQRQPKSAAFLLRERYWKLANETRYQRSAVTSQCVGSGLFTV

T2: Beta-glucuronidase (Bos taurus) (UniProt A3KMY8)
T2 sequence (whole entry): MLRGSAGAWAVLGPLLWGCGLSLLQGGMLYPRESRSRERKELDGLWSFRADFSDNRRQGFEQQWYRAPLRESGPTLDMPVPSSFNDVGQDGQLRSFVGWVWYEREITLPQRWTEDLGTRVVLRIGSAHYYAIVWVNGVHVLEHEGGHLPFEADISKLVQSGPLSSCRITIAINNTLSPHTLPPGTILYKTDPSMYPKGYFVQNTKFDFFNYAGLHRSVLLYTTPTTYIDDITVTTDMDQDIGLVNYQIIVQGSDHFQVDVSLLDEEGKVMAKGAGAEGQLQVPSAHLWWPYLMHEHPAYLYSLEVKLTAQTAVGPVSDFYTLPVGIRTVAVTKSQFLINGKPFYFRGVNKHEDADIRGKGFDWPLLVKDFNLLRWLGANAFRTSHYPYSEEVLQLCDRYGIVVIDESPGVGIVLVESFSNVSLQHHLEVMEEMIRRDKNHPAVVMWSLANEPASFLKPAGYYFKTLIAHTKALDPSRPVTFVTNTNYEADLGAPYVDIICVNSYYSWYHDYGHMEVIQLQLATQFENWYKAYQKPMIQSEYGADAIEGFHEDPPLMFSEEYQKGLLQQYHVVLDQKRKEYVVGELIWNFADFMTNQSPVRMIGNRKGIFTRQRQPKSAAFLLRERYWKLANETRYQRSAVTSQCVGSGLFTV


Legend:
Beta-glucuronidase = biological target: T1, Beta-glucuronidase; test: Inhibition of bovine beta-glucuronidase
[1] = biological target: T2, Beta-glucuronidase (Bos taurus); test: Inhibition of bovine beta-glucuroniase assessed as decrease in enzyme inhibition in presence of BSA; details: concentration not given here
[2] = substrate: C=C1C[C@@H](OC(=O)c2ccccc2)[C@@H]2[C@](C)(CCC[C@@]2(C)C(=O)O)[C@@H]1CC/C(C)=C/CO; test: Activity at bovine beta-glucuroniase by Lineweaver-Burke plot; details: Bos taurus

| Molecule | IC50 (Beta-glucuronidase) [µM] | inhibition [1] [%] | Km [2] [mM] |
| --- | --- | --- | --- |
| C=C1C[C@@H](OC(=O)c2ccccc2)[C@@H]2[C@](C)(CCC[C@@]2(C)C(=O)O)[C@@H]1CCC(C)=O [SCOPARIC ACID B] | > 100 | – | – |
| Beta-glucuronidase (Bos taurus), A3KMY8 (protein) MLRGSAGAWAVLGPLLWGCGLSLLQGGMLYPRESRSRERKELDGLWSFRADFSDNRRQGFEQQWYRAPLRESGPTLDMPVPSSFNDVGQDGQLRSFVGWVWYEREITLPQRWTEDLGTRVVLRIGSAHYYAIVWVNGVHVLEHEGGHLPFEADISKLVQSGPLSSCRITIAINNTLSPHTLPPGTILYKTDPSMYPKGYFVQNTKFDFFNYAGLHRSVLLYTTPTTYIDDITVTTDMDQDIGLVNYQIIVQGSDHFQVDVSLLDEEGKVMAKGAGAEGQLQVPSAHLWWPYLMHEHPAYLYSLEVKLTAQTAVGPVSDFYTLPVGIRTVAVTKSQFLINGKPFYFRGVNKHEDADIRGKGFDWPLLVKDFNLLRWLGANAFRTSHYPYSEEVLQLCDRYGIVVIDESPGVGIVLVESFSNVSLQHHLEVMEEMIRRDKNHPAVVMWSLANEPASFLKPAGYYFKTLIAHTKALDPSRPVTFVTNTNYEADLGAPYVDIICVNSYYSWYHDYGHMEVIQLQLATQFENWYKAYQKPMIQSEYGADAIEGFHEDPPLMFSEEYQKGLLQQYHVVLDQKRKEYVVGELIWNFADFMTNQSPVRMIGNRKGIFTRQRQPKSAAFLLRERYWKLANETRYQRSAVTSQCVGSGLFTV | – | – | 14.3 |

More lines, in order of falling IC50 (Beta-glucuronidase), values ahead:

| IC50 (Beta-glucuronidase) [µM] | inhibition [1] [%] | Molecule | Km [2] [mM] |
| --- | --- | --- | --- |
| 10 | – | C=C(C=O)CC[C@@H]1C(=C)C[C@@H](OC(=O)c2ccccc2)[C@@H]2[C@]1(C)CCC[C@@]2(C)C(=O)O [SCOPARIC ACID C] | – |
| 6.8 | 5 | C=C1C[C@@H](OC(=O)c2ccccc2)[C@@H]2[C@](C)(CCC[C@@]2(C)C(=O)O)[C@@H]1CC/C(C)=C/CO [SCOPARIC ACID A] | – |
